Results taken from patent US20250243196A1, “CITRON KINASE INHIBITORS” (The Cleveland Clinic Foundation, priority 2021, published 2025).

Experiments:
Experiment in all cases: KinaseProfiler panel
Format in all cases: biochemical
Conditions in all cases: activity remaining
CRIK(h) = CRIK(h) (Homo sapiens (Human), UniProt O14578); set-up: dose or concentration left out as unconfirmed
Abl(h) = Abl(h) (Homo sapiens (Human), UniProt P00519); set-up: dose or concentration left out as unconfirmed
ARK5(h) = ARK5(h) (Homo sapiens (Human), UniProt O60285); set-up: dose or concentration left out as unconfirmed
B-Raf(h) = B-Raf(h) (Homo sapiens (Human), UniProt P15056); set-up: dose or concentration left out as unconfirmed
Bmx(h) = Bmx(h) (Homo sapiens (Human), UniProt P51813); set-up: dose or concentration left out as unconfirmed
BrSK1(h) = BrSK1(h) (Homo sapiens (Human), UniProt Q8TDC3); set-up: dose or concentration left out as unconfirmed
BrSK2(h) = BrSK2(h) (Homo sapiens (Human), UniProt Q8IWQ3); set-up: dose or concentration left out as unconfirmed
CaMKIβ(h) = CaMKIβ(h) (Homo sapiens (Human), UniProt Q6P2M8); set-up: dose or concentration left out as unconfirmed
CDK18/cyclinY(h) = CDK18/cyclinY(h) (Homo sapiens (Human), UniProt Q07002); set-up: dose or concentration left out as unconfirmed
CHK1(h) = CHK1(h) (Homo sapiens (Human), UniProt O14757); set-up: dose or concentration left out as unconfirmed
CLK3(h) = CLK3(h) (Homo sapiens (Human), UniProt P49761); set-up: dose or concentration left out as unconfirmed
DCAMKL3(h) = DCAMKL3(h) (Homo sapiens (Human), UniProt Q9C098); set-up: dose or concentration left out as unconfirmed
eEF-2K(h) = eEF-2K(h) (Homo sapiens (Human), UniProt O00418); set-up: dose or concentration left out as unconfirmed
FAK(h) = FAK(h) (Homo sapiens (Human), UniProt Q05397); set-up: dose or concentration left out as unconfirmed
GSK3β(h) = GSK3β(h) (Homo sapiens (Human), UniProt P49841); set-up: dose or concentration left out as unconfirmed
JAK1(h) = JAK1(h) (Homo sapiens (Human), UniProt P23458); set-up: dose or concentration left out as unconfirmed
MEKK3(h) = MEKK3(h) (Homo sapiens (Human), UniProt Q99759); set-up: dose or concentration left out as unconfirmed
MKK3(h) = MKK3(h) (Homo sapiens (Human), UniProt P46734); set-up: dose or concentration left out as unconfirmed
mTOR(h) = mTOR(h) (Homo sapiens (Human), UniProt P42345); set-up: dose or concentration left out as unconfirmed
MYO3B(h) = MYO3B(h) (Homo sapiens (Human), UniProt Q8WXR4); set-up: dose or concentration left out as unconfirmed
PAK4(h) = PAK4(h) (Homo sapiens (Human), UniProt O96013); set-up: dose or concentration left out as unconfirmed
PDGFRα(h) = PDGFRα(h) (Homo sapiens (Human), UniProt P16234); set-up: dose or concentration left out as unconfirmed
PI3 Kinase (p120g)(h) = PI3 Kinase (p120g)(h) (Homo sapiens (Human), UniProt P48736)
PKCι(h) = PKCι(h) (Homo sapiens (Human), UniProt P41743); set-up: dose or concentration left out as unconfirmed
PrKX(h) = PrKX(h) (Homo sapiens (Human), UniProt P51817); set-up: dose or concentration left out as unconfirmed
Ret(h) = Ret(h) (Homo sapiens (Human), UniProt P07949); set-up: dose or concentration left out as unconfirmed
RIPK1(h) = RIPK1(h) (Homo sapiens (Human), UniProt Q13546); set-up: dose or concentration left out as unconfirmed
RIPK2(h) = RIPK2(h) (Homo sapiens (Human), UniProt O43353); set-up: dose or concentration left out as unconfirmed
SGK(h) = SGK(h) (Homo sapiens (Human), UniProt O00141); set-up: dose or concentration left out as unconfirmed
Syk(h) = Syk(h) (Homo sapiens (Human), UniProt P43405); set-up: dose or concentration left out as unconfirmed
TNIK(h) = TNIK(h) (Homo sapiens (Human), UniProt Q9UKE5)
VRK1(h) = VRK1(h) (Homo sapiens (Human), UniProt Q99986); set-up: dose or concentration left out as unconfirmed
ZAK(h) = ZAK(h) (Homo sapiens (Human), UniProt Q9NYL2); set-up: dose or concentration left out as unconfirmed

Chain of PKCι(h) (P41743 whole entry): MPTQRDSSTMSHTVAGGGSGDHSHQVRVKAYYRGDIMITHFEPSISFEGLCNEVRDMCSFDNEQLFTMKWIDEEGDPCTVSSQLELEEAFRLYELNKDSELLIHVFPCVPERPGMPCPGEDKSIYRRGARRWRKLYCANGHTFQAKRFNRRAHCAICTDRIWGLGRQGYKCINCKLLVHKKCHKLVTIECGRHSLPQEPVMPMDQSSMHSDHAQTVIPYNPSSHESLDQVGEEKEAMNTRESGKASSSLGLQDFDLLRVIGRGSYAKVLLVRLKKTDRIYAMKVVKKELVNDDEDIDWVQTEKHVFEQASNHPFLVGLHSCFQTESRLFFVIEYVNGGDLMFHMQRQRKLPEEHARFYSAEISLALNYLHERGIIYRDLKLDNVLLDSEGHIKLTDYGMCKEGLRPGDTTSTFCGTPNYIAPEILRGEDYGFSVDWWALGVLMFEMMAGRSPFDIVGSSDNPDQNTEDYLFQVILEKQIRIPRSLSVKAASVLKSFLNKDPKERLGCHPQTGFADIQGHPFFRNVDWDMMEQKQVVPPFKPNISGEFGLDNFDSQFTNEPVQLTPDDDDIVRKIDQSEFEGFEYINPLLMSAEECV
Chain of ARK5(h) (O60285 whole entry): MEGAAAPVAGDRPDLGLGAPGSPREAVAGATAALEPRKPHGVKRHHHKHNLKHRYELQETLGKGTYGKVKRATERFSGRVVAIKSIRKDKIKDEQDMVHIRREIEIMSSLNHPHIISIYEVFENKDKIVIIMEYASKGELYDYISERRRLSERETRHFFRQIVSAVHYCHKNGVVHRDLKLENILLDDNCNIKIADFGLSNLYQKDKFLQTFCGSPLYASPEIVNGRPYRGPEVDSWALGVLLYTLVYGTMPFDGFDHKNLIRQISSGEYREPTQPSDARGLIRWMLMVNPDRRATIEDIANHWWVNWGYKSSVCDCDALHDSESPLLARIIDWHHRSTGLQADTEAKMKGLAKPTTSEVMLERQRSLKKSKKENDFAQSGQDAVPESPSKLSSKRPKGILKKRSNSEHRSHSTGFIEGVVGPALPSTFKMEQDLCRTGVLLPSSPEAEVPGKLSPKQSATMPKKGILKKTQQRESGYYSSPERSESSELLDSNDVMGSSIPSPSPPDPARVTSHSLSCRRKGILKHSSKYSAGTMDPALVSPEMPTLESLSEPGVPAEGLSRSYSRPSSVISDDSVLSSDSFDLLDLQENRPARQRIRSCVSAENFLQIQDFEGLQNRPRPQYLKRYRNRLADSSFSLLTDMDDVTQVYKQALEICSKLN
Chain of RIPK1(h) (Q13546 whole entry): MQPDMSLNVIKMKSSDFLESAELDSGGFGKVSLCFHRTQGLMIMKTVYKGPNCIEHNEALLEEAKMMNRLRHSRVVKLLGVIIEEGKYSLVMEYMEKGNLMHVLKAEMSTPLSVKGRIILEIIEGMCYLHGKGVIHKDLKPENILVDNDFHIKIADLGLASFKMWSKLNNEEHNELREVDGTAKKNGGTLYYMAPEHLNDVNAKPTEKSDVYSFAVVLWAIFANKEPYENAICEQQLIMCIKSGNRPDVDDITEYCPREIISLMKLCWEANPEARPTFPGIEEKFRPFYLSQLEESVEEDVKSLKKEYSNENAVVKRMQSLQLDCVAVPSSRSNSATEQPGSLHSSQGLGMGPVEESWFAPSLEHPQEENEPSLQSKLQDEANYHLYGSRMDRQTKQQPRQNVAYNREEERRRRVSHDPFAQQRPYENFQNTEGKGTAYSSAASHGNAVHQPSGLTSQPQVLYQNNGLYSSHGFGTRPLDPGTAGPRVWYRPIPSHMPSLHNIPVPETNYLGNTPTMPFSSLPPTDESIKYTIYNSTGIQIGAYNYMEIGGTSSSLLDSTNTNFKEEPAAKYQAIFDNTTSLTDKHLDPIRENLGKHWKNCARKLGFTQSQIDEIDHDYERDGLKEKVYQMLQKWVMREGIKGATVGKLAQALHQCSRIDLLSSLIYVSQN
Chain of MYO3B(h) (Q8WXR4 whole entry): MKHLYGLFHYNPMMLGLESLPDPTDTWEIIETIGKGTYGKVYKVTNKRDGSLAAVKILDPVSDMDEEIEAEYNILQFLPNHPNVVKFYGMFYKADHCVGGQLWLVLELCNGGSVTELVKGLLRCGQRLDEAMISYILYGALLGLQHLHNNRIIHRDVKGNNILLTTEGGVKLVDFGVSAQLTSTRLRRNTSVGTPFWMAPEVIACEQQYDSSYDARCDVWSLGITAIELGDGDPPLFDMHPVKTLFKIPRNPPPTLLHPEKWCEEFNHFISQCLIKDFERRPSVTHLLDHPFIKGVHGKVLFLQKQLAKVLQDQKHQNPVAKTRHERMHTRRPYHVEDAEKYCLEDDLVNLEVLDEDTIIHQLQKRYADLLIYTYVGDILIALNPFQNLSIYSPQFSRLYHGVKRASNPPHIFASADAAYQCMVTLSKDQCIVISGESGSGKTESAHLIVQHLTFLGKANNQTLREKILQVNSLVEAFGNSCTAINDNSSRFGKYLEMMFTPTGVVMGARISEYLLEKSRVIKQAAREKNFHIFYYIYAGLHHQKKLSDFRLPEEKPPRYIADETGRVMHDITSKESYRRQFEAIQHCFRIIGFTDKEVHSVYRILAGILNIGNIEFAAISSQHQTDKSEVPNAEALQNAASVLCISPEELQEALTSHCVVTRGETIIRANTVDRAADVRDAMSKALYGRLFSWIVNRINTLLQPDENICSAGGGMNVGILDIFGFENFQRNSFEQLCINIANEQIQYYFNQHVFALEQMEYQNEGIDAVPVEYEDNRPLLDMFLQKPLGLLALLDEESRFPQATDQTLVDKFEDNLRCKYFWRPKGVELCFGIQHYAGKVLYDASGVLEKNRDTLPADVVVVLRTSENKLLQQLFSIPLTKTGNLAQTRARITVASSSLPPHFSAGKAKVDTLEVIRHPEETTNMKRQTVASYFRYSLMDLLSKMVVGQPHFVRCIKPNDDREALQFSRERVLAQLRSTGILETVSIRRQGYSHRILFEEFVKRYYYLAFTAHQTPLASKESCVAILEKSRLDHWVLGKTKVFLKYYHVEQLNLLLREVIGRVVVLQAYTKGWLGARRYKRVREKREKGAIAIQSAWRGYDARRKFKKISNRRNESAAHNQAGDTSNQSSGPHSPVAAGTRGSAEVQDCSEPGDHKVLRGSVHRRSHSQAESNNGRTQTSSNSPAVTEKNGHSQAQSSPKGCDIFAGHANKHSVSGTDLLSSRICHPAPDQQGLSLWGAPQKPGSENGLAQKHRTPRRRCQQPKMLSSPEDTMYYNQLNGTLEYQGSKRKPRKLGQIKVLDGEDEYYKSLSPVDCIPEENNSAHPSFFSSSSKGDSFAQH
Chain of PI3 Kinase (p120g)(h) (P48736 whole entry): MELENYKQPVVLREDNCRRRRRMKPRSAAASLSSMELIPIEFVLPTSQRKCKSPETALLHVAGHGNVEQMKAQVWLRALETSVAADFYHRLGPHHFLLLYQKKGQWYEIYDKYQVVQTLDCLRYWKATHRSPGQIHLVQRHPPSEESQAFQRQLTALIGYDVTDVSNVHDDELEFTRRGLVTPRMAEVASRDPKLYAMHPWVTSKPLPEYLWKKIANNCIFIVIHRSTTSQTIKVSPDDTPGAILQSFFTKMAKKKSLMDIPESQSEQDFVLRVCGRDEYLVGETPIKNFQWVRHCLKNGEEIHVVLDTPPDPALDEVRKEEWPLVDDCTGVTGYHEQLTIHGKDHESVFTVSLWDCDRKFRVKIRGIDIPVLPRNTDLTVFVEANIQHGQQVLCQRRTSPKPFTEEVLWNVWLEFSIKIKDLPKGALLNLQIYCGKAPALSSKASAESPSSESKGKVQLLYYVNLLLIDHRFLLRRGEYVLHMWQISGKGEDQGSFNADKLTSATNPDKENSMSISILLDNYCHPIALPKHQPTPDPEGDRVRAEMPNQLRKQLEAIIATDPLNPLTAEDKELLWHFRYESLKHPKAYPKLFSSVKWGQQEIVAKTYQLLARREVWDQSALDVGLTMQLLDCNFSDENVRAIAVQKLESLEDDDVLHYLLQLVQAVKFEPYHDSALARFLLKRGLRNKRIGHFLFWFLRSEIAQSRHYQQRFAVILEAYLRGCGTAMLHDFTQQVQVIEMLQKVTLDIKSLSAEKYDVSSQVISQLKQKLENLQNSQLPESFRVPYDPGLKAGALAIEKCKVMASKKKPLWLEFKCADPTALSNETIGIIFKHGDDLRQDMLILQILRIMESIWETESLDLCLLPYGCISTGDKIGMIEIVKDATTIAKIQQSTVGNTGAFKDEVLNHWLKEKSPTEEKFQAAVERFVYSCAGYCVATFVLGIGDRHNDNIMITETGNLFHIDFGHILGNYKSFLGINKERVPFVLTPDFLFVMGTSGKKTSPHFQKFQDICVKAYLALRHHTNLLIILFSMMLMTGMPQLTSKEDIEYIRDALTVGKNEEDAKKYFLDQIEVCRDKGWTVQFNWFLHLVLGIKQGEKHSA
Chain of RIPK2(h) (O43353 whole entry): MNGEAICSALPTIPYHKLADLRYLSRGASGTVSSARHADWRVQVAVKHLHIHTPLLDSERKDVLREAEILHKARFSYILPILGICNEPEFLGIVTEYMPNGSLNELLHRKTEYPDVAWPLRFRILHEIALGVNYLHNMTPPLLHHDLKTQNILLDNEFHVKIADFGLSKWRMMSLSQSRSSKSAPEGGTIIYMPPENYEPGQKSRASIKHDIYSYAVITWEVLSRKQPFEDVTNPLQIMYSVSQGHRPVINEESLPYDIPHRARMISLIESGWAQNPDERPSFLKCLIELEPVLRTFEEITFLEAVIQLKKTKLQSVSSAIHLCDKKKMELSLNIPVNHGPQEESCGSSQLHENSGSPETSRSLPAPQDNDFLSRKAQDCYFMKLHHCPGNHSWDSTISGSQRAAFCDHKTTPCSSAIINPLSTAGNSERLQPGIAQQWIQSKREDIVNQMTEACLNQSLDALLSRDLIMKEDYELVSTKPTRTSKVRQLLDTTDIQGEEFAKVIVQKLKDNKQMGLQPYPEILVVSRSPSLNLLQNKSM

In the case of `Cc1cc2c(-c3ccc(NC(=O)[C@H](N)CC(C)(C)C)cc3C)ccnc2[nH]1` [Compound F-90, (2R)-2-Amino-4,4-dimethyl-N-[3-methyl-4-(2-methyl-1H-pyrrolo[2,3-b]pyridin-4-yl)phenyl]pentanamide], the “% Activity” value (CRIK(h)) is reported as 0%, the “% Activity” value (Abl(h)) is reported as 99% and the “% Activity” value (ARK5(h)) is reported as 85%. For the same compound, the “% Activity” value (B-Raf(h)) was 110%, the “% Activity” value (Bmx(h)) was 97% and the “% Activity” value (BrSK1(h)) was 96%. The “% Activity” value (BrSK2(h)) was 83%, the “% Activity” value (CaMKIβ(h)) was 85% and the “% Activity” value (CDK18/cyclinY(h)) was 94%. The “% Activity” value (CHK1(h)) was 108%, the “% Activity” value (CLK3(h)) was 107% and the “% Activity” value (DCAMKL3(h)) was 86%. For the same compound, the “% Activity” value (eEF-2K(h)) was 92%, the “% Activity” value (FAK(h)) was 96% and the “% Activity” value (GSK3β(h)) was 93%. For the same compound, the “% Activity” value (JAK1(h)) was 85%, the “% Activity” value (MEKK3(h)) was 107% and the “% Activity” value (MKK3(h)) was 97%. For the same compound, the “% Activity” value (mTOR(h)) was 95%, the “% Activity” value (MYO3B(h)) was 79% and the “% Activity” value (PAK4(h)) was 83%. The “% Activity” value (PDGFRα(h)) was 116%, the “% Activity” value (PI3 Kinase (p120g)(h)) was 105% and the “% Activity” value (PKCι(h)) was 110%. For the same compound, the “% Activity” value (PrKX(h)) was 101%, the “% Activity” value (Ret(h)) was 97% and the “% Activity” value (RIPK1(h)) was 84%. For the same compound, the “% Activity” value (RIPK2(h)) was 97%, the “% Activity” value (SGK(h)) was 113% and the “% Activity” value (Syk(h)) was 66%. For the same compound, the “% Activity” value (TNIK(h)) was 93%, the “% Activity” value (VRK1(h)) was 99% and the “% Activity” value (ZAK(h)) was 83%.
